Results from US20130288275A1, “COMPOSITIONS AND METHODS FOR DETECTING ACETYLATED SUMO PROTEINS” (Georgetown University, priority 2010, published 2013).

Assays:
[1] = molecular target: T1, CBP (Homo sapiens, UniProt Q92793); test: In vitro acetylation reaction with CBP; format: biochemical; settings: purified protein, 14C-acetyl CoA, autoradiography
T1 construct: purified SUMO-1 protein and the catalytic domain of several acetyltransferases, specifically of CBP and PCAF; purchased Biomol
Method: FIG. 2. Identification of an acetylated domain of SUMO-1 conserved among SUMO family members. A. Purified SUMO1 was subjected to an in vitro acetylation reaction in the absence (lane 2) or presence (lane 3) of CBP, and of 14C-Acetyl-Coenzyme A. Lane 1 contain CBP in the absence of SUMO-1. Reactions were assembled in 30 μl volume, and developed with autoradiography. 1/20 of the reaction mixtures were run independently and proteins were visualized with Coomassie Brilliant Blue staining (lanes 4-6). The position of SUMO-1 and CBP is indicated by arrows. B. Peptide competition experiments. The following acetylated peptides were used: K25-K27:YIK(Ac)LK(Ac)VIG (lane 2); peptide K37-K39:HFK(Ac)VK(Ac)MTT (lane 3); peptide K45-K46-K48:HLK(Ac)K(Ac)LK(Ac)ES (lane 4). Lane 1 contains the acetylation reaction with a control peptide ([…]) and lane 5 contains the acetylation reaction without peptide(s). Polypeptides were incubated in a 10 fold excess relatively to full length SUMO-1. C. Identification of lysines residues acetylated in vitro and in vivo by mass spectrometry and alignment of acetylated residues in SUMO-1 with SUMO-2 and SUMO-3. Acetylated lysines of SUMO-1 are indicated by arrows and bolded in red, and conserved residues are shown. Based on the results of Mass Spectrometry we name the domain comprised between amino acid K37 to K48 SUMO-1 Acetylated Domain, or SAD. D. Acetylation of SUMO family members. Acetylation reactions were carried out as described in A. SUMO-1 (lanes 2, 5) SUMO-2 (lanes 3, 6), or SUMO-3 (lanes 4, 7) were subjected to an acetylation reaction in absence (lanes 2-4) or presence (lanes 5-7; indicated by +) of CBP. Lane 1 contains an acetylation reaction with CBP without SUMO proteins. […]
From the mass spectrometric analysis performed on the in vitro reactions, it was determined that CBP was able to acetylate the same residues that were found acetylated in vivo, specifically K37, K39 and K48. […]

[2] = molecular target: T1, CBP; test: Peptide competition of CBP-mediated acetylation of full-length SUMO-1; format: biochemical; settings: cold acetylated peptide in 10 fold excess relatively to full length SUMO-1; 14C-acetyl CoA
Method: FIG. 2. Identification of an acetylated domain of SUMO-1 conserved among SUMO family members. A. Purified SUMO1 was subjected to an in vitro acetylation reaction in the absence (lane 2) or presence (lane 3) of CBP, and of 14C-Acetyl-Coenzyme A. Lane 1 contain CBP in the absence of SUMO-1. Reactions were assembled in 30 μl volume, and developed with autoradiography. 1/20 of the reaction mixtures were run independently and proteins were visualized with Coomassie Brilliant Blue staining (lanes 4-6). The position of SUMO-1 and CBP is indicated by arrows. B. Peptide competition experiments. The following acetylated peptides were used: K25-K27:YIK(Ac)LK(Ac)VIG (lane 2); peptide K37-K39:HFK(Ac)VK(Ac)MTT (lane 3); peptide K45-K46-K48:HLK(Ac)K(Ac)LK(Ac)ES (lane 4). Lane 1 contains the acetylation reaction with a control peptide ([…]) and lane 5 contains the acetylation reaction without peptide(s). Polypeptides were incubated in a 10 fold excess relatively to full length SUMO-1. C. Identification of lysines residues acetylated in vitro and in vivo by mass spectrometry and alignment of acetylated residues in SUMO-1 with SUMO-2 and SUMO-3. Acetylated lysines of SUMO-1 are indicated by arrows and bolded in red, and conserved residues are shown. Based on the results of Mass Spectrometry we name the domain comprised between amino acid K37 to K48 SUMO-1 Acetylated Domain, or SAD. D. Acetylation of SUMO family members. Acetylation reactions were carried out as described in A. SUMO-1 (lanes 2, 5) SUMO-2 (lanes 3, 6), or SUMO-3 (lanes 4, 7) were subjected to an acetylation reaction in absence (lanes 2-4) or presence (lanes 5-7; indicated by +) of CBP. Lane 1 contains an acetylation reaction with CBP without SUMO proteins.
Acetylation reactions were typically assembled in a 30 μl volume, containing HAT buffer (1×25 mM Tris-HCl ph 7.9; 50 mM NaCl, 1 mM DTT), 6 μl of ^14C-Acetyl-Coenzyme A (Amersham) or cold Acetyl-Coenzyme A (lithium salt, from Roche), 1-2 μg CBP, 0.5-1 μg of SUMO proteins. […]

[3] = molecular target: T2, PCAF (Homo sapiens, UniProt Q92831); test: In vitro acetylation reaction with PCAF; format: biochemical; settings: purified protein, 14C-acetyl CoA
T2 construct: purified SUMO-1 protein and the catalytic domain of several acetyltransferases, specifically of CBP and PCAF
Method: Acetylation reactions were typically assembled in a 30 μl volume, containing HAT buffer (1×25 mM Tris-HCl ph 7.9; 50 mM NaCl, 1 mM DTT), 6 μl of ^14C-Acetyl-Coenzyme A (Amersham) or cold Acetyl-Coenzyme A (lithium salt, from Roche), 1-2 μg CBP, 0.5-1 μg of SUMO proteins.
The discovery of such similarities implied that this SUMO-1 domain might functionally mimic the acetylated state of similar domains of transcription factors. Two approaches were used to determine if the identified SUMO-1 domain was acetylated. First, acetylation assays were performed in vitro using purified SUMO-1 protein and the catalytic domain of several acetyltransferases, specifically of CBP and PCAF, in the presence of 14C-acetyl CoA. […] To preliminarily map the site(s) of acetylation, we tested the ability of cold synthetic polypeptides corresponding to specific SUMO-1 regions, to inhibit CBP-mediated acetylation of the full-length protein in a reaction containing 14C-acetyl CoA.

[4] = test system: H1299 cells; test: Cell cycle analysis by flow cytometry; format: cell-based, human; settings: H1299 cells infected with adenovirus expressing p53, 72 hours after infection
Method: FIG. 5. […] 72 hours after infection, cells were harvested and their cell cycle profile was analyzed (see materials and methods). B-C.
Flow cytometry was performed as described previously by Knights, C. D., et al. J. Cell Biol. 173(4):533-544 (2006).

[5] = test system: SUMO-1 acetylation; test: Modulation of SUMO-1 acetylation in H1299 cells expressing SUMO-1; format: cell-based, human; settings: 500 nM TSA or 1 μM etoposide, versus untreated cells
Method: FIG. 3. SUMO-1 is acetylated when bound to its substrates. A. A polyclonal antibody raised against a SUMO-1 peptide SEIHF{Lys-Ac}[…] acetylated at K37 was raised and purified by peptide affinity purification. The specificity of this antibody was tested first in an in vitro acetylation reaction similar to that described in FIG. 2A. SUMO-1 was incubated in the presence (lane 3) or absence (lane 2) of CBP and cold Acetyl-coenzyme A. Lane 1 contains the acetylation reaction with CBP alone without SUMO-1. Samples were subjected to SDS electrophoresis, blotted on a PDF membrane, and probed with Ac-K37-Ab in immunoblot (upper panel). After chemi-luminescence, the membrane was stained with Comassie Brilliant Blue to reveal SUMO-1 (lower panel). B. Acetylation of SUMO-1 in vivo. Control H1299 cells (lanes 1 and 4) or H1299 expressing naïve SUMO-1 (lanes 2 and 5) or a SUMO-1 harboring lysine to arginine replacements at position K37-K39 and K45-K46-K48 (SUMOK37-K48R, lanes 3 and 6) were induced with tetracycline. […] Following electrophoresis and transfer, membranes were immuno-blotted with the Ac-K37-Ab (left panel, lanes 1-3). Forty micrograms of total cell extracts were probed with the anti-Flag antibody in direct immuno-blot (right panel, lanes 4-6). The position of free SUMO-1 and of SUMO-1 conjugated to RanGap is indicated by arrows. C. Modulation of SUMO-1 acetylation by deacetylases and by DNA damaging agents. H1299 cells expressing SUMO-1 were left untreated (lanes 1 and 5) or they were treated with 500 nM TSA (lanes 2 and 6), with 1 μM etoposide (lanes 3 and 7), or with 100 mM H2O2 (lanes 4 and 8). Cell extracts were prepared in RIPA buffer, immuno-precipitated with the anti-Flag antibody and processed in immuno-blot with the Ac-K37-Ab as described in B (lanes 1-4). Total cell extracts are shown in the right panel. The position of SUMO-1, RanGaP and of SUMO-1 conjugates is indicated. Full arrows indicate non specific reactivity of the Ac-K37-Ab with heavy and light chains of the anti-Flag immuno-precipitation.
Unless otherwise indicated, cell extracts were prepared in RIPA buffer (0.1% SDS; 50 mM Tris.Cl, pH 6.8; 150 mM NaCl; 0.5% Nonidet P-40; 2 mM EDTA) supplemented with protease a protease inhibitor mixture, with TSA (500 μM) and with […] NEM as an inhibitor of de-sumoylation. Treatment with etoposide was performed at […] overnight. When probed with the anti-SUMO or anti-acetyl-K37 antibody (37-1Ab) in direct immuno-blot, membranes where treated with 6 M Guanidine for 30 minutes, followed by incubation in blocking solution. The Ac-K37 (37-1Ab) antibody was used to a 1:500 dilution in direct immuno-blots on in vitro acetylation reactions (i.e., FIG. 3A) and to a 1:250 dilution for the experiments in cells and in murine tumors. […]

T1 sequence (Q92793 1323-1700 limits assumed): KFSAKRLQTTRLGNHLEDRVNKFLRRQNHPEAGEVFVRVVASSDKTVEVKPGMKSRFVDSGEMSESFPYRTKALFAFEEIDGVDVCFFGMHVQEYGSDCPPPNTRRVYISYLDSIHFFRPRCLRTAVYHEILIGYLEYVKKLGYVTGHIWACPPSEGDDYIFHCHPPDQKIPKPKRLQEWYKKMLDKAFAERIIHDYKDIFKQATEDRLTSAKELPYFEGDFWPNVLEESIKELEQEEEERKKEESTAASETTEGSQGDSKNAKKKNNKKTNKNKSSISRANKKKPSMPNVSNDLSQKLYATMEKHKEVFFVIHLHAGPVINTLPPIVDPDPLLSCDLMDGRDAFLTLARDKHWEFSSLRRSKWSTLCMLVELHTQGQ
T2 sequence (Q92831 503-651 limits assumed, species assumed): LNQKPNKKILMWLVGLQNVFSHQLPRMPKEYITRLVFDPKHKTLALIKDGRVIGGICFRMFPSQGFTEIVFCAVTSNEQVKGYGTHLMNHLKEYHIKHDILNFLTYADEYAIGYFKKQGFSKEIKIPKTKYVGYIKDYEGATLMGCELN

Row | acetylation by CBP [1] | inhibition of CBP-mediated acetylation of full-length SUMO-1 [2] | Molecule | other results
1 | robustly acetylated | – | SUMO-3: purified SUMO-3 from Biomol, SEQ ID NO:3 | –
2 | – | only weakly abrogated | YIK(Ac)LK(Ac)VIG [K25 and K26] | –
3 | efficiently acetylated | – | SUMO-1: small ubiquitin-like modifier protein, SEQ ID NO:1; purified from Biomol or Flag-tagged expressed in H1299 cells | acetylation by PCAF [3]: not by PCAF; apoptotic cells [4]: 15%
4 | – | completely blocked acetylation | HLK(Ac)K(Ac)LK(Ac)ES [K45-K46-K48] | –
5 | robustly acetylated | – | SUMO-2: purified SUMO-2 from Biomol, SEQ ID NO:2 | –
6 | – | – | COc1cc([C@@H]2c3cc4c(cc3[C@@H](O[C@@H]3O[C@@H]5CO[C@@H](C)O[C@H]5[C@H](O)[C@H]3O)[C@H]3COC(=O)[C@H]23)OCO4)cc(OC)c1O [etoposide] | acetylation signal on free SUMO-1 [5]: stronger than that seen in untreated cells; levels of acetylation on RanGAP [5]: only modestly influenced
7 | – | – | CC(/C=C/C(=O)NO)=C\[C@@H](C)C(=O)c1ccc(N(C)C)cc1 [TSA] | acetylation signal on free SUMO-1 [5]: stronger than that seen in untreated cells; levels of acetylation on RanGAP [5]: only modestly influenced
8 | – | completely blocked acetylation | HFK(Ac)VK(Ac)MTT [K37-K39] | –
